According to patent publication US9340577B2, “HLA binding motifs and peptides and their uses” (priority 1992, dated 2016):
No end group written: not given here.

Columns and labels:
Assay in all cases: biochemical
DR1 (DRB1*0101) = DR1 (DRB1*0101) (Homo sapiens, UniProt P01903+P01911, A100R/D57E/F55L/F60I/F76Y/I96L/L162R/M171V/P40L/Q125E/R42F/V115G/Y59C); type: binding
DR4w4 (DRB1*0401) = DR4w4 (DRB1*0401) (Homo sapiens, UniProt P01903+P01911, A100K/A169T/F76Y/I96L/K127E/L162R/M171V/N62H/P40V/Q125Y/R42H/S133A/S149N/S66Y/V115G/V209L/W38E); type: binding
DRB3*0101 = DRB3*0101 (Homo sapiens, UniProt P01903+P79483); type: binding
DRB1*0301 = DRB1*0301 (Homo sapiens, UniProt P01903+P01911, A100K/A102G/A103R/A169T/F55Y/I96L/K41T/L162R/M171V/P40S/Q125H/Q178H/Q39Y/R42S/S66N/T106N/T262R/W38E/Y61H); type: binding
DRB4*0101 = DRB4*0101 (Homo sapiens, UniProt P01903+P13762, G164S); type: binding
DRB1*1302 = DRB1*1302 (Homo sapiens, UniProt P01903+P01911, A100E/A169T/K41T/L162R/M171V/P40S/Q125H/Q178H/Q39Y/Q99D/R42S/S66N/T262R/V115G/W38E/Y61H); type: binding
DRB1*1101 = DRB1*1101 (Homo sapiens, UniProt P01903+P01911, A100R/A169T/A87E/I96F/K41T/L162R/M171V/P40S/Q125H/Q178H/Q39Y/Q99D/R42S/S66Y/T262R/V115G/W38E); conditions: Binding affinity DRB1 *1101
DRB1*0901 = DRB1*0901 (Homo sapiens, UniProt P01903+P01911, A100R/A103E/D57H/D86V/F55Y/F60I/F76Y/I96F/K127E/L162R/M171V/P40D/Q125H/Q99R/R33Q/R42F/S133A/S66N/T210M/V115G/W38K/Y107V/Y59G/Y89S); type: binding
DRB1*1501 = DRB1*1501 (Homo sapiens, UniProt P01903+P01911); type: binding
DRB1*0405 = DRB1*0405 (Homo sapiens, UniProt P01903+P01911, A100R/A169T/D86S/F76Y/I96L/K127E/L162R/M171V/N62H/P40V/Q125Y/R42H/S133A/S149N/S66Y/V115G/V209L/W38E); type: binding
DRB1*0802 = DRB1*0802 (Homo sapiens, UniProt P01903+P01911, A100R/A103L/A169T/F76Y/H45Y/I96F/K41T/L162R/M171V/P40S/Q125H/Q178H/Q39Y/Q99D/R218S/R42G/S66Y/V115G/W38E); type: binding
DR7 (DRB1*0701) = DR7 (DRB1*0701) (Homo sapiens, UniProt P01903+P01911, A100R/A102G/A103Q/D57E/D86V/E43K/F76Y/K127E/L162R/M171V/P40G/Q125H/Q99D/R33Q/R42Y/R54Q/S133A/S66F/T210M/V115G/Y107V/Y59L/Y89S); type: binding
DRB5*0101 = DRB5*0101 (Homo sapiens, UniProt P01903+Q30154); conditions: Binding affinity DRB5 *0101

Chain of DRB1*1302 (P01903 26-254 limits assumed, other chains not shown): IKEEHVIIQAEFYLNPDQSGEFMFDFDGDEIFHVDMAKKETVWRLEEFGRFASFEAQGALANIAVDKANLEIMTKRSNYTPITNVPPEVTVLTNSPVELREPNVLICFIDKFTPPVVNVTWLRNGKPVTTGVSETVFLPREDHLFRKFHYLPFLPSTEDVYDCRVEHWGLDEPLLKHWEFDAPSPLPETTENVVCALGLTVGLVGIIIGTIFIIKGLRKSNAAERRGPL
Chain of DRB1*1101 (P01903 26-254 limits assumed, other chains not shown): as above
Chain of DRB1*0301 (P01903 26-254 limits assumed, other chains not shown): as above

In the case of QIQVFETLEET [Peptide 1385.01], the IC50 (DR1 (DRB1*0101)) is reported as greater than 20 µM, the IC50 (DR4w4 (DRB1*0401)) is reported as greater than 20 µM and the IC50 (DRB3*0101) is reported as greater than 20 µM. The IC50 (DRB1*0301) was greater than 20 µM, the IC50 (DRB4*0101) was greater than 20 µM and the IC50 (DRB1*1302) was greater than 20 µM.

Sequence QMMLETLNNTEYKNE [Peptide 1601.22] has an IC50 (DR1 (DRB1*0101)) greater than 20 µM, an IC50 (DRB1*1101) greater than 20 µM and an IC50 (DRB3*0101) greater than 20 µM. It also gave an IC50 (DRB1*0901) greater than 20 µM, an IC50 (DRB1*0301) of 9.64 µM and an IC50 (DRB1*1501) greater than 20 µM. The IC50 (DRB1*0405) was 0.063 µM, the IC50 (DRB1*0802) was greater than 20 µM and the IC50 (DRB4*0101) was 0.555 µM. It also gave an IC50 (DR7 (DRB1*0701)) greater than 20 µM, an IC50 (DRB1*1302) of 14.7 µM and an IC50 (DRB5*0101) greater than 20 µM.

With RNTFLDVVTIPNSVQ [Peptide 1601.39] the IC50 (DR1 (DRB1*0101)) was 0.555 µM, the IC50 (DRB1*1101) was 0.371 µM and the IC50 (DRB3*0101) was 12 µM. The IC50 (DRB1*0901) was 5.87 µM, the IC50 (DRB1*0301) was 6.86 µM and the IC50 (DRB1*1501) was 17 µM. It also gave an IC50 (DRB1*0405) of 0.326 µM, an IC50 (DRB1*0802) of 0.776 µM and an IC50 (DR7 (DRB1*0701)) of 0.27 µM. For the same sequence, the IC50 (DRB5*0101) was greater than 20 µM.

SDEISFAGIVTKLPT [Peptide 1601.45] showed an IC50 (DR1 (DRB1*0101)) of 0.513 µM, an IC50 (DR4w4 (DRB1*0401)) of 8.79 µM and an IC50 (DRB1*1101) of 12.2 µM. The IC50 (DRB3*0101) was greater than 20 µM, the IC50 (DRB1*0901) was 1.28 µM and the IC50 (DRB1*0301) was 1.66 µM. It also gave an IC50 (DRB1*1501) of 0.791 µM, an IC50 (DRB1*0405) of 2.35 µM and an IC50 (DRB1*0802) of 10.7 µM. It also gave an IC50 (DR7 (DRB1*0701)) of 0.901 µM.

Work on SNEVSSPEIIRQHLA [Peptide 1601.06] yielded an IC50 (DR1 (DRB1*0101)) greater than 20 µM, an IC50 (DR4w4 (DRB1*0401)) greater than 20 µM and an IC50 (DRB1*1101) greater than 20 µM. The IC50 (DRB3*0101) was greater than 20 µM, the IC50 (DRB1*0301) was 4.79 µM and the IC50 (DRB1*1501) was 5.36 µM. The IC50 (DRB1*0405) was greater than 20 µM, the IC50 (DRB1*0802) was greater than 20 µM and the IC50 (DRB4*0101) was 0.013 µM. For the same sequence, the IC50 (DR7 (DRB1*0701)) was 8.61 µM and the IC50 (DRB5*0101) was greater than 20 µM.

STSDDTVSATQIVRQ [Peptide 1601.31] showed an IC50 (DR1 (DRB1*0101)) of 18.1 µM, an IC50 (DR4w4 (DRB1*0401)) of 0.558 µM and an IC50 (DRB1*1101) greater than 20 µM. It also gave an IC50 (DRB3*0101) greater than 20 µM, an IC50 (DRB1*0901) greater than 20 µM and an IC50 (DRB1*0301) of 3.74 µM. It also gave an IC50 (DRB1*1501) greater than 20 µM, an IC50 (DRB1*0405) greater than 20 µM and an IC50 (DRB1*0802) greater than 20 µM. It also gave an IC50 (DR7 (DRB1*0701)) of 5.21 µM, an IC50 (DRB1*1302) greater than 20 µM and an IC50 (DRB5*0101) greater than 20 µM.

Sequence STWHWTGCNKNTGIL [Peptide 1601.38] has an IC50 (DR1 (DRB1*0101)) greater than 20 µM, an IC50 (DR4w4 (DRB1*0401)) greater than 20 µM and an IC50 (DRB1*1101) of 0.662 µM. For the same sequence, the IC50 (DRB3*0101) was greater than 20 µM, the IC50 (DRB1*0901) was greater than 20 µM and the IC50 (DRB1*0301) was greater than 20 µM. For the same sequence, the IC50 (DRB1*1501) was greater than 20 µM, the IC50 (DRB1*0802) was 11.7 µM and the IC50 (DRB4*0101) was greater than 20 µM. For the same sequence, the IC50 (DRB1*1302) was 0.487 µM and the IC50 (DRB5*0101) was 16.5 µM.

TYISTSQRDDFLNTV [Peptide 1601.27] was tested, and the IC50 (DR1 (DRB1*0101)) was greater than 20 µM, the IC50 (DR4w4 (DRB1*0401)) was 16.3 µM and the IC50 (DRB1*1101) was greater than 20 µM. The IC50 (DRB3*0101) was 6.62 µM, the IC50 (DRB1*0901) was 13 µM and the IC50 (DRB1*0301) was 0.152 µM. It also gave an IC50 (DRB1*1501) greater than 20 µM, an IC50 (DRB1*0405) of 5.2 µM and an IC50 (DRB1*0802) greater than 20 µM. For the same sequence, the IC50 (DRB4*0101) was 0.48 µM and the IC50 (DRB5*0101) was greater than 20 µM.

YENDSTDLRDHIDYW [Peptide 1601.01] gave an IC50 (DR1 (DRB1*0101)) greater than 20 µM, an IC50 (DR4w4 (DRB1*0401)) greater than 20 µM and an IC50 (DRB1*1101) greater than 20 µM. It also gave an IC50 (DRB3*0101) of 8.55 µM, an IC50 (DRB1*0901) greater than 20 µM and an IC50 (DRB1*0301) of 15.8 µM. It also gave an IC50 (DRB1*1501) greater than 20 µM, an IC50 (DRB1*0405) greater than 20 µM and an IC50 (DRB1*0802) greater than 20 µM. It also gave an IC50 (DR7 (DRB1*0701)) greater than 20 µM, an IC50 (DRB1*1302) greater than 20 µM and an IC50 (DRB5*0101) greater than 20 µM.
